The source of these data is US11884675B2, “Heterocyclic compounds as triggering receptor expressed on myeloid cells 2 agonists and methods of use” (AMGEN INC., priority 2020, dated 2024).

Broadly, the EC50 is the concentration giving half of the maximal effect. A higher EC50 goes with a need for much substance.

This assay concerns the target hTREM2 (Homo sapiens, UniProt Q9NZC2). The assay can be described thus: TREM2 activity by cellular Syk phosphorylation (AlphaScreen/AlphaLISA) in TREM2/DAP12-HEK cells, used for Examples 1-305. In kind it is cell-based. Particulars: HEK293 Cells. The arrangement: expressed in transfected cells. The method in brief:
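Single-cell-cloned HEK293 cells overexpressing TREM2 and DAP12, seeded 20 h, exposed to test articles (1% final DMSO) for 45 min at room temperature. Lysates read for phospho-Syk (Tyr525/526) vs total Syk by AlphaScreen. Signal normalised as percent of control between isotype IgG and 100 nM anti-TREM2 antibody; 4-parameter logistic fit.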
(Bead proximity is the source of the signal in Alpha formats.)

Chain of hTREM2 (Q9NZC2 19-230): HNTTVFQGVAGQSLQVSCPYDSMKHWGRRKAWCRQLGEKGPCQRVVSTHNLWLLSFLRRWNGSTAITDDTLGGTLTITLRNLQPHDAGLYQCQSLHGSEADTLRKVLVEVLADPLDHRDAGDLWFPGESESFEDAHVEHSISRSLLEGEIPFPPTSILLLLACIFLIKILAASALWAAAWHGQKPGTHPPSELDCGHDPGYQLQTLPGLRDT
Chain of hTREM2 (O43914 22-113 partner): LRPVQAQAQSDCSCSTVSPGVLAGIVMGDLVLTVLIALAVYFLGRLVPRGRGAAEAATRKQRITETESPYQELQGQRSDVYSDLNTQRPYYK

For the molecule `Cc1ccc2c(-c3ccc(Cl)cc3F)nc(N3CCO[C@H](c4cnc(C)nc4)C3)nc2n1` (single isomer, unassigned) [Example 89], the EC50 fell in the range of 500 to 3000 nM; the “hTREM2 Emax” value was “+++ (Emax>150 and ≤250)”.
For `Cc1cnc2c(-c3ccc(Cl)cc3F)cc(N3CCO[C@@H](c4cnn(C)c4)C3)nc2n1` [Example 159, 8-(4-chloro-2-fluorophenyl)-3-methyl-6-((2S)-2-(1-methyl-1H-pyrazol-4-yl)-4-morpholinyl)pyrido [2,3-b]pyrazine], the EC50 was 50 to 500 nM; the “hTREM2 Emax” value was “+++ (Emax>150 and ≤250)”.
For `Cc1cnc2c(-c3ccc(Cl)cc3F)cc([C@@H]3CCO[C@H](c4cnn(C)c4)C3)nc2n1` [Example 271, 8-(4-chloro-2-fluorophenyl)-3-methyl-6-((2S,4R)-2-(1-methyl-1H-pyrazol-4-yl)tetrahydro-2H-pyran-4-yl)pyrido [2,3-b]pyrazine], the 50% effective concentration (EC50) fell in the range of 3000 to 100000 nM; the “hTREM2 Emax” value was “+++ (Emax>150 and ≤250)”.
Regarding `CCN1Cc2c(cc(N3CCO[C@@H](c4cnn(C)c4)C3)nc2-c2ccc(Cl)cc2F)C1=O` [Example 121, 4-(4-chloro-2-fluorophenyl)-2-ethyl-6-((2S)-2-(1-methyl-1H-pyrazol-4-yl)-4-morpholinyl)-2,3-dihydro-1H-pyrrolo[3,4-c]pyridin-1-one], the EC50 lay within 50 to 500 nM and the “hTREM2 Emax” value is “++++ (Emax>250)”.
For `CC(C)N1Cc2c(cc(N3CCO[C@@H](c4cnn(C)c4)C3)nc2-c2ccc(Cl)cc2F)C1=O` [Example 122, 4-(4-chloro-2-fluorophenyl)-6-((2S)-2-(1-methyl-1H-pyrazol-4-yl)-4-morpholinyl)-2-(2-propanyl)-2,3-dihydro-1H-pyrrolo[3,4-c]pyridin-1-one], the half-maximal effective concentration (EC50) fell in the range of 500 to 3000 nM; the “hTREM2 Emax” value was “+++ (Emax>150 and ≤250)”.
Consider `Cc1cc2c(-c3ccc(F)cc3F)nc(N3CCO[C@@H](c4cnn(C5CC5)c4)C3)nc2nc1C` [Example 169, 2-((2S)-2-(1-cyclopropyl-1H-pyrazol-4-yl)-4-morpholinyl)-4-(2,4-difluorophenyl)-6,7-dimethylpyrido [2,3-d]pyrimidine], for which the EC50 was no more than 50 nM; the “hTREM2 Emax” value is “+++ (Emax>150 and ≤250)”.
For `Cc1nc2cc([C@@H]3CCO[C@H](c4cnn(C)c4)C3)nc(-c3ccc(F)cc3F)c2nc1C` [Example 257, 5-(2,4-difluorophenyl)-2,3-dimethyl-7-((2S,4R)-2-(1-methyl-1H-pyrazol-4-yl)tetrahydro-2H-pyran-4-yl)pyrido[3,4-b]pyrazine], the 50% effective concentration (EC50) lay within 500 to 3000 nM; the “hTREM2 Emax” value was “++ (Emax>100 and ≤150)”.
For the molecule `Cc1nc2nc(N3CCC(F)(F)[C@@H](c4cnn(C)c4)C3)nc(-c3ccc(Cl)cc3F)c2nc1C` (single isomer, unassigned) [Example 123], the EC50 was no more than 50 nM; the “hTREM2 Emax” value is “+++ (Emax>150 and ≤250)”.
For `Cc1nc2nc(N3CCO[C@@H](c4cnn(C5CC5)c4)C3)nc([C@H]3C[C@H](C(F)F)C3)c2nc1C` [Example 48, 2-((2S)-2-(1-cyclopropyl-1H-pyrazol-4-yl)-4-morpholinyl)-4-(trans-3-(difluoromethyl)cyclobutyl)-6,7-dimethylpteridine], the EC50 was no more than 50 nM; the “hTREM2 Emax” value is “++ (Emax>100 and ≤150)”.
With `Cc1nc2nc(N3CCO[C@@H](c4cnn(C)c4)C3)cc(-c3ccc(Cl)cc3F)c2nc1C` [Example 160, 8-(4-chloro-2-fluorophenyl)-2,3-dimethyl-6-((2S)-2-(1-methyl-1H-pyrazol-4-yl)-4-morpholinyl)pyrido [2,3-b]pyrazine], the concentration giving a half-maximal response (EC50) is no more than 50 nM and the “hTREM2 Emax” value is “++++ (Emax>250)”.
As to `CN1Cc2c(-c3ccc(Cl)cc3F)cc(N3CCO[C@H](c4cnn(C)c4)C3)nc2C1=O` [Example 304, (R)-4-(4-chloro-2-fluorophenyl)-6-methyl-2-(2-(1-methyl-1H-pyrazol-4-yl)morpholino)-5,6-dihydro-7H-pyrrolo [3,4-b]pyridin-7-one], the EC50 was 500 to 3000 nM; the “hTREM2 Emax” value was “+++ (Emax>150 and ≤250)”.
On to `Cn1cc([C@H]2CN(c3nc(-c4ccc(Cl)cc4F)c4cccnc4n3)CCO2)cn1` [Example 83, 4-(4-chloro-2-fluorophenyl)-2-((2S)-2-(1-methyl-1H-pyrazol-4-yl)-4-morpholinyl)pyrido[2,3-d]pyrimidine], for which the EC50 fell in the range of 500 to 3000 nM and the “hTREM2 Emax” value is listed as “++++ (Emax>250)”.
As to `Cc1cnc2c(n1)nc(N1CCO[C@@H](c3cnn(C)c3)C1)nc2[C@H]1C[C@H](C(F)(F)F)C1` [Example 11, 7-methyl-2-((2S)-2-(1-methyl-1H-pyrazol-4-yl)-4-morpholinyl)-4-(trans-3-(trifluoromethyl)cyclobutyl)pteridine], the half-maximal effective concentration (EC50) was in the range of 50 to 500 nM; the “hTREM2 Emax” value was “++ (Emax>100 and ≤150)”.
On to `Cc1nc2nc(N3CCO[C@@H](c4cnn(C)c4)C3)nc([C@H]3C[C@@H](C(F)(F)F)C3)c2nc1C` [Example 43, 6,7-dimethyl-2-((2S)-2-(1-methyl-1H-pyrazol-4-yl)-4-morpholinyl)-4-(cis-3-(trifluoromethyl)cyclobutyl)pteridine], for which the EC50 was in the range of 50 to 500 nM; the “hTREM2 Emax” value was “+++ (Emax>150 and ≤250)”.
`Cc1cc([C@H]2CN(c3nc4nc(C)c(C)cc4c([C@H]4C[C@H](C(F)(F)F)C4)n3)CCO2)ccn1` [Example 115, 6,7-dimethyl-2-((2S)-2-(2-methyl-4-pyridinyl)-4-morpholinyl)-4-(trans-3-(trifluoromethyl)cyclobutyl)pyrido[2,3-d]pyrimidine]: the EC50 is no more than 50 nM; the “hTREM2 Emax” value is “++ (Emax>100 and ≤150)”.
For the molecule `Cc1cc([C@H]2CN(c3nc(-c4ccc(F)cc4F)c4cc(C)c(C)nc4n3)CCO2)ccn1` [Example 168, 4-(2,4-difluorophenyl)-6,7-dimethyl-2-((2S)-2-(2-methyl-4-pyridinyl)-4-morpholinyl)pyrido[2,3-d] pyrimidine], the half-maximal effective concentration (EC50) was no more than 50 nM and the “hTREM2 Emax” value is recorded as “++++ (Emax>250)”.
For `Cc1nc2nc(N3CCO[C@@H](c4cnn(C)c4)C3)nc(-c3ccc(Cl)cc3F)c2nc1C` [Example 21, 4-(4-chloro-2-fluorophenyl)-6,7-dimethyl-2-((2S)-2-(1-methyl-1H-pyrazol-4-yl)-4-morpholinyl)pteridine], in that order: no more than 50 nM and “++++ (Emax>250)”.
As for `Cc1nc2nc(N3CCO[C@@H](c4cnn(C)c4)C3)nc([C@H]3CC[C@H](C)CC3)c2nc1C` [Example 136, 6,7-dimethyl-4-(trans-4-methylcyclohexyl)-2-((2S)-2-(1-methyl-1H-pyrazol-4-yl)-4-morpholinyl)pteridine], the 50% effective concentration (EC50) is no more than 50 nM; the “hTREM2 Emax” value is “+++ (Emax>150 and ≤250)”.
Turning to `Cc1cnc2c(-c3ccc(Cl)cc3F)nc([C@@H]3CCO[C@H](c4cnc(C)nc4)C3)nc2n1` (single isomer, unassigned) [Example 174], the EC50 lay in the range of 50 to 500 nM; the “hTREM2 Emax” value was “+++ (Emax>150 and ≤250)”.
Take `Cc1ccc2c(n1)nc(N1CCO[C@@H](c3cnn(C)c3)C1)nc2[C@H]1C[C@@H](C(F)(F)F)C1` [Example 275, (S)-2-(1-methyl-1H-pyrazol-4-yl)-4-(7-methyl-4-((1s,3R)-3-(trifluoromethyl)cyclobutyl)pyrido[2,3-d]pyrimidin-2-yl)morpholine]: the half-maximal effective concentration (EC50) was 3000 to 100000 nM; the “hTREM2 Emax” value is “+ (Emax>45 and ≤100)”.
